For nine molecules, t1/2 results are on record in patent EP1970064A1, “Silicon-derivatives for pet-imaging” (Bayer Schering Pharma Aktiengesellschaft, priority 2007, dated 2008).

This data set can be described thus: Hydrolytic stability: hydrolysis of the 19F fluorosilane to the silanol at physiological pH (7.0). Type of data set: physicochemical. To be noted: hydrolytic halflife of the 19F compound at pH 7.0, calculated from the kinetics. On the procedure: The time dependent degree of hydrolysis of compounds of formula I in which X is a fluorine atom of isotope 19 to compounds of formula I in which X is a hydroxy group was determined at physiological pH (7.0). From the kinetics the hydrolytic halflife (t1/2) measured in hours [h] of compounds of formula I in which X is a fluorine atom of isotope 19 were calculated (Table 1, column 2).
The ratio of the hydrolytic halflifes of compounds of formula I in which X is a fluorine atom of isotope 19 and the radioactive halflife of the 18-F isotope (1.83 hours) is defined as relative stability (Table 1, column 3).
After 6 hours 90% of the 18-F isotope have been decayed.
Compounds of formula I in which X is a fluorine atom of isotope 18 are considered as useful for PET applications if the relative stability of their analogs bearing a fluorine atom of isotope 19 exceed a factor of four and if at least 50% of these compounds remain intact after 6 hours under hydrolytic conditions at pH 7.

The structures appear in SMILES notation.

Consider `CC(C)[Si](F)(c1cccc(CCCOC2CCCCO2)c1)C(C)C` (racemic) [Compound 3d - F, (RS)-Fluoro-diisopropyl-{3-[3-(tetrahydro-pyran-2-yloxy)-propyl]-phenyl}-silane], for which the t1/2 is above 100.0 h.
With `CC(C)[Si](F)(c1cccc(CCOC2CCCCO2)c1)C(C)C` (racemic) [Compound 3e - F, (RS)-Fluoro-diisopropyl-{3-[2-(tetrahydro-pyran-2-yloxy)-ethyl]-phenyl}-silane], the t1/2 is above 100.0 h.
Turning to `F[Si](c1ccccc1)(c1ccccc1)c1ccc(CCOC2CCCCO2)cc1` (racemic) [Compound 3f-F, (RS)-Fluoro-diphenyl-{4-[2-(tetrahydro-pyran-2-yloxy)-ethyl]-phenyl}-silane], the t1/2 is 0.07 h.
For the molecule `CC(C)C[Si](F)(CC(C)C)c1ccc(COC2CCCCO2)cc1` (racemic) [Compound 3g-F, (RS)-Fluoro-diisobutyl-[4-(tetrahydro-pyran-2-yloxymethyl)-phenyl]-silane], the t1/2 is recorded as 8.1 h.
To `CC(C)[Si](F)(c1ccc(CCCO)cc1)C(C)C` [Compound 4c - F, 3-[4-(Fluoro-diisopropyl-silanyl)-phenyl]-propan-1-ol] belongs above 100.0 h; to `CC(C)[Si](F)(c1ccc(CCC(=O)O)cc1)C(C)C` [Compound 5c - F, 3-[4-(Fluoro-diisopropyl-silanyl)-phenyl]-propionic acid], 59.0 h.
The same measure for `CC(C)[Si](F)(c1cccc(CC(=O)O)c1)C(C)C` [Compound 5e - F, [3-(Fluoro-diisopropyl-silanyl)-phenyl]-acetic acid]: 20.0 h; for `CC(C)C[Si](F)(CC(C)C)c1ccc(C(=O)O)cc1` [Compound 5g-F, 4-(Fluoro-diisobutyl-silanyl)-benzoic acid]: 3.5 h.
To `CC(C)C[Si](F)(CC(C)C)c1ccc(CC(=O)O)cc1` [Compound 5h-F, [4-(Fluoro-diisobutyl-silanyl)-phenyl]-acetic acid] belongs 8.7 h.
